The target of the test is T1, Activin receptor type-1 (Homo sapiens, UniProt Q04771).
T1 sequence (Q04771 whole entry): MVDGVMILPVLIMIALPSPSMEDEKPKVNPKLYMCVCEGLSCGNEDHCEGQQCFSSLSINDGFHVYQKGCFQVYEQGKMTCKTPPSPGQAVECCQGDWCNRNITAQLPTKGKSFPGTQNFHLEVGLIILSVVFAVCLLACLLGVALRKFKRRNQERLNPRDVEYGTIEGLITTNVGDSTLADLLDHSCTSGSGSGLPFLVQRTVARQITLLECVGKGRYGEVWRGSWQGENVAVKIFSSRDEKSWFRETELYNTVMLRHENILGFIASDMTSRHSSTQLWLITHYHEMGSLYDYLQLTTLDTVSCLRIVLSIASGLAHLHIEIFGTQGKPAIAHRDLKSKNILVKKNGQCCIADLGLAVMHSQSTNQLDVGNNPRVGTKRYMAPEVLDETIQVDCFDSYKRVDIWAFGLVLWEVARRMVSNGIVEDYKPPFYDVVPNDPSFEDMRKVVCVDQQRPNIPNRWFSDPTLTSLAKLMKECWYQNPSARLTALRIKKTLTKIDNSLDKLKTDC
The test is described as follows: Biochemical assay: Biochemical assays to measure the inhibitory effects of the compounds were performed by ThermoFisher Scientific (Life Technologies). ALK2 inhibition was tested using LanthaScreen Eu Kinase Binding Assay screening protocol.

With `COc1cc(-n2cnc(Nc3nc(-c4cccc(CO)c4)nc4sc(CO)cc34)c2)cc(OC)c1OC`, the IC50 was less than 0.1 µM.

The values above are taken from ChEMBL document CHEMBL5729731, “Imidazole-containing inhibitors of ALK2 kinase” (2023).
